Experimental data from ChEMBL document CHEMBL1155596, “8-O-Methylsclerotiorinamine, antagonist of the Grb2-SH2 domain, isolated from Penicillium multicolor” (J Nat Prod, 2000).

Experiments:
[1] = biological target: Growth factor receptor-bound protein 2 (Homo sapiens, UniProt P62993); test: Inhibition of GST tagged Grb2 SH2 domain binding to Shc-derived [3H]phosphopeptide
[2] = Growth inhibition of mouse B104-1-1 cells after 48 hrs by WST1 assay; assay type: cell-based
[3] = biological target: Growth factor receptor-bound protein 2 (Mus musculus) (UniProt Q60631); test: Inhibition of Shc-Grb2 interaction in mouse B104-1-1 cells by immunoblotting; assay type: cell-based; design: scale not given: the % may be the effect or the level left
Sequence of Growth factor receptor-bound protein 2 (Mus musculus) (Q60631 whole entry): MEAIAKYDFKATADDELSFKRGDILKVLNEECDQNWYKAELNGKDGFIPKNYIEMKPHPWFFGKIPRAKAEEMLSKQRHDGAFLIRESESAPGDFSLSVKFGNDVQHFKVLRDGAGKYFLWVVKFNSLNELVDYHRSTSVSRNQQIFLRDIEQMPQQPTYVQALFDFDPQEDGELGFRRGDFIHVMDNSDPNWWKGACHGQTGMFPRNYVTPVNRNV

IC50 [1]: 5.3 µM
Activity [3]: 50%
SMILES: CCC(C)/C=C(C)/C=C/c1cc2c(cn1)=C(OC)[C@@](C)(OC(C)=O)C(=O)C=2Cl (stereo partly drawn)
GI50 at 48 h [2]: 50 µM
